Assay [1] addresses T1, human α1-GlyR (WT) expressed in HEK 293 cells (Homo sapiens, UniProt P23415).
T1 sequence (P23415 29-457): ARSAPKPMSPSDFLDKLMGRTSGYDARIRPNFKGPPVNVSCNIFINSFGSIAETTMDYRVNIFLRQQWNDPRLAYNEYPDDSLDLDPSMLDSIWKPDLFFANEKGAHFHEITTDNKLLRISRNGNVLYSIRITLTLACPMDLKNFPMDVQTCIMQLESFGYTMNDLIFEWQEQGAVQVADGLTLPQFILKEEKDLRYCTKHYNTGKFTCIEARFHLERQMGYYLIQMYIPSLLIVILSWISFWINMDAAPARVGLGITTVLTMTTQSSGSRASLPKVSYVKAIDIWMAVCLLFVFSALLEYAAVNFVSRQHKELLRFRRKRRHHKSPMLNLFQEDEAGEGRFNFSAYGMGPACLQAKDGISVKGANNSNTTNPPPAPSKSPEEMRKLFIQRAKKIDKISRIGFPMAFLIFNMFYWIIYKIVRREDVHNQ
The source says: (§1) Human α1-, α1R271Q-, α1R271L-, α1R271K and α1S267I-GlyR subunits were transiently transfected into human embryonic kidney cells (HEK 293, ATCC, Manassas, USA). The wild type α1-GlyR -cDNA was cloned in pCIS2 (Invitrogen, San Diego, USA) vector and provided by Prof. Heinrich Betz (Max-Planck-Institut für Hirnforschung, Frankfurt am Main, Germany). For the plasmid cDNA of the mutated α1R271Q-, α1R271L-, α1R271K- and α1S267I-GlyR the eukaryotic expression vector pcDNA1amp (Invitrogen, San Diego, USA), under the control of cytomegalovirus promoter, was used. For site-directed mutagenesis, single stranded template cDNA was synthesized from M13 origin of replication and the mutations of arginine residue (R) at position 271 to glutamine (R271Q), leucine (R271L) or lysine (R271K) and mutation of serine residue (S) at position 267 to isoleucine (S267I) were generated using standard procedures. […] Wild type and mutated α1-GlyR subunits efficiently form homomeric receptors in heterologous expression systems.
(§2) HEK 293 cells were cultured in medium containing HAMS’F-12 (Biochrom, Berlin, Germany), supplemented with 10% fetal bovine serum (FBS, Biochrom, Berlin, Germany), 100 U ml^–1 penicillin and 100μgml^–1 streptomycin (Gibco BRL, Life Technologies, Karlsruhe, Germany) at 37°C in a 5% CO2/ 95% air incubator. For transfection cells were suspended in a buffer containing 50mM K2HPO4 (Fluka BioChemika, Seelze, Germany), 20mMK-acetate (Sigma-Aldrich, Taufkirchen, Germany) and 25mM MgSO4 (Sigma-Aldrich, Taufkirchen, Germany) at pH 7.35. To visualize transfected cells, they were co-transfected with cDNA encoding for enhanced green fluorescent protein (EGFP) contained in the pEGFP-N1 expression vector (Clontech, Palo Alto, USA). The corresponding cDNA (5μg for the GlyR and 2.5μg for EGFP) was added to 400μl of the cell suspension and the mixture was rapidly transferred into the electroporation cuvette. For transfection we used an electroporation device by EquiBio (Kent, UK) and a 4mm aluminum electrode electroporation cuvette (Peqlab, Erlangen, Germany).
(§3) The phenol derivative 4-chloropropofol ([…]) was provided as pure substance by Prof. Paul M. O’Neill (University of Liverpool, England), prepared as light-protected 1M stock solution in ethanol (EtOH, J.T.Baker, Griesheim, Germany) and stored in glass vessels at −20°C.
(§4) Drug-containing vials were vigorously vortexed for 30min. Patch electrodes were filled with an intracellular solution of [mM] KCl 140, MgCl2 2, EGTA 11, HEPES 10, glucose 11, CaCl2 1 with pH 7.3, adjusted with 1 M KOH and a bath solution contained [mM] NaCl 162, KCl 5.31, NaHPO4 0.85, KH2PO4 0.22, HEPES 15, glucose 6.11, pH 7.4 adjusted with 1 M NaOH. Osmolarity of both solutions was set at 280–300 mOsmol.
(§5) Whole-cell experiments were performed at a holding potential of −30 mV with a mean seal resistance of 1 GΩ. […] A fast liquid filament switch technique was used for the application of the agonist, presented in pulses of 2 s duration every 20 s. The liquid filament switch technique is able to exchange the solution passing an outside-out patch or small whole-cells within 1–2 ms. We calculated flow rate of background solution through the chamber with 3,4 ml/min corresponding to 4% of maximal pump rate. With regard to the chamber volume of 100 μl the exchange solution time within the chamber was assessed to approximately […], dependent on cell size accordingly. Piezo-switch and small diameter capillary (ID 0.15 mm) within the measurement chamber promoted the millisecond solution exchange. […] The induced current (I) by this saturating control solution was defined as Icontrol. […] The stability of the seal was controlled during the complete experiment via control of the seal resistance. A variation of 10-20% of the basic value was regarded as tolerable.

Assay [2] addresses T2, human α1R271K-GlyR expressed in HEK 293 cells (Homo sapiens, UniProt P23415, R299K).
T2 sequence (P23415 29-457 R299K): T1 sequence (P23415 29-457) with R271K
To be noted: R271K.
Description: as §1, §2, §3, §4, §5

The mark [3] stands for this setting: 10-90% of Imax, monoexponential fit.

Residue numbers refer to the chain shown, from its start. “And” between values parts separate entries of the source, which are not always exact repeats. Identical values can stand only once.

On to `NCC(=O)O` [glycine], for which the “Current amplitude [% of mean WT current amplitude] ± SEM” value is 100.0±26% in assay [1] and 32.0±18% in assay [2]. Moreover, the “nH ± SEM (Hill coefficient), glycine activation” value in assay [1] was 0.8 and 0.8±0.7; in assay [2], 1.0±0.5. For the same compound, the “Rise time ± SEM” value was 3.7 ms and 3.7 ± 0.8 ms in assay [1] (setting [3]); 14.9 ± 7.7 ms in assay [2] (setting [3]). Besides, the “Mean current amplitude ± SEM” value is given as 1645±426 pA in assay [1] (saturating glycine 1 mM) and 526±97 pA in assay [2] (saturating glycine 10 mM).

The record behind these values is paper PMC3517478 (BMC Neurology, 2012).
